Results published in ChEMBL document CHEMBL6127041, “Dual-target inhibitors based on acetylcholinesterase: Novel agents for Alzheimer's disease” (Eur J Med Chem, 2024).

Columns and labels:
[1] = target: T1, Acetylcholinesterase (Homo sapiens, UniProt P22303); assay: Inhibition of AChE (unknown origin)
[2] = target: T2, Beta-secretase 1 (Homo sapiens, UniProt P56817); assay: Inhibition of BACE-1 (unknown origin) measured after 2 hrs by FRET assay
[3] = target: T3, Acetylcholinesterase (Electrophorus electricus, UniProt O42275); assay: Inhibition of electric eel AChE using acetylthiocholine iodide as substrate preincubated with compounds for 20 mins followed by substrate addition and measured after 5 mins by Ellman's method
T3 sequence (O42275 whole entry): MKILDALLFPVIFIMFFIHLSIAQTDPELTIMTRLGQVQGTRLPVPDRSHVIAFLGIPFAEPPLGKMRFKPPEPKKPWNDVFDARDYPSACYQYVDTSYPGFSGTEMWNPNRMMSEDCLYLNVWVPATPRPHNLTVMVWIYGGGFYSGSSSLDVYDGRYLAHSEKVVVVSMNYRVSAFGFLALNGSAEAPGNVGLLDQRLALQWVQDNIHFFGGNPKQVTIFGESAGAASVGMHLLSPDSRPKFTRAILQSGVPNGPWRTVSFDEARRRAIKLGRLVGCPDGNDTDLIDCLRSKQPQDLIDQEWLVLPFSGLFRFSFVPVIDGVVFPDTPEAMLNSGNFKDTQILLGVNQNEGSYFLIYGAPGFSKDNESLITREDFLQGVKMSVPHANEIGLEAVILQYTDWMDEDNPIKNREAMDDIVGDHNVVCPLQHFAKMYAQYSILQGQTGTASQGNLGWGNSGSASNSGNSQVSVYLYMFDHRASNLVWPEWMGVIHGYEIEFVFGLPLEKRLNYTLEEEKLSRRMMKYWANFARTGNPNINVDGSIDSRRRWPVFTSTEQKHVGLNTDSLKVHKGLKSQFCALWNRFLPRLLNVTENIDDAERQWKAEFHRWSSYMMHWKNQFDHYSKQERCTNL

[4] = target: T3, Acetylcholinesterase; assay: Inhibition of electric eel AChE using acetylthiocholine iodide as substrate preincubated for 5 mins followed by substrate addition by DTNB reagent based Ellman's method
[5] = target: Cholinesterase (Homo sapiens, UniProt P06276); assay: Inhibition of BChE (unknown origin) incubated for 10 mins by Ellman's method
Chain of Cholinesterase (Homo sapiens, UniProt P06276) (P06276 whole entry): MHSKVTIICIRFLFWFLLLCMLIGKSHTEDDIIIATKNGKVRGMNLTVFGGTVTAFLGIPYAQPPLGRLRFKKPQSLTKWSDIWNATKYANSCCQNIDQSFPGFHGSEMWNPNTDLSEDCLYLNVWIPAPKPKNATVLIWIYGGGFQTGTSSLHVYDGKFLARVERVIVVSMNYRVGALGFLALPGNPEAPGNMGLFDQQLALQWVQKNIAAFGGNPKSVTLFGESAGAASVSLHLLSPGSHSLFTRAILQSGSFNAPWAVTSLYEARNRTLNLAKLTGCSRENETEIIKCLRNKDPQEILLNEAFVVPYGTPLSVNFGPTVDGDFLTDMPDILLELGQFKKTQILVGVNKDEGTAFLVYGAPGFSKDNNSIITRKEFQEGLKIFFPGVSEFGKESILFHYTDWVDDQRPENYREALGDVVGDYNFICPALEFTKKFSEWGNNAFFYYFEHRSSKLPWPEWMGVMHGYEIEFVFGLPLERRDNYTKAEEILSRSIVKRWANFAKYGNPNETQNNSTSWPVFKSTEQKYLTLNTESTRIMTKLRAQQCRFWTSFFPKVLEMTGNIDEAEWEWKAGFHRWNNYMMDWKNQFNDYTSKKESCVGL

[6] = target: T4, Amine oxidase [flavin-containing] A (Homo sapiens, UniProt P21397); assay: Inhibition of MAO-A (unknown origin)
T4 sequence (P21397 whole entry): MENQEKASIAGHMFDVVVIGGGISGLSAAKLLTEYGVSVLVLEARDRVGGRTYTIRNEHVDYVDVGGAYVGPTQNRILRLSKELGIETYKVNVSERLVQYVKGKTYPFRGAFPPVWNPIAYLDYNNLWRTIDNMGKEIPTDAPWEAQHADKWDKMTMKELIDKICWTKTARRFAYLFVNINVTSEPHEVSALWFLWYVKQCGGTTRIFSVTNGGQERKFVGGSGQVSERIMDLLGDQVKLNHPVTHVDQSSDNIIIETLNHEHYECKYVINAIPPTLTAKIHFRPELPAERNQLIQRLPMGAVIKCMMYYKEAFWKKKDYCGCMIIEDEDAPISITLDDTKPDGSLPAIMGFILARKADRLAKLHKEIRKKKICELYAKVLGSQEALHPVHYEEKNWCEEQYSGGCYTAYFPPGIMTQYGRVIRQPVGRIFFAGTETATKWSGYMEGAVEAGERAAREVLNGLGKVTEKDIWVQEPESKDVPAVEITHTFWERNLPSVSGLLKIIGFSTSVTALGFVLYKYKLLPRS

[7] = target: T5, Amine oxidase [flavin-containing] B (Homo sapiens, UniProt P27338); assay: Inhibition of MAO-B (unknown origin)
T5 sequence (P27338 whole entry): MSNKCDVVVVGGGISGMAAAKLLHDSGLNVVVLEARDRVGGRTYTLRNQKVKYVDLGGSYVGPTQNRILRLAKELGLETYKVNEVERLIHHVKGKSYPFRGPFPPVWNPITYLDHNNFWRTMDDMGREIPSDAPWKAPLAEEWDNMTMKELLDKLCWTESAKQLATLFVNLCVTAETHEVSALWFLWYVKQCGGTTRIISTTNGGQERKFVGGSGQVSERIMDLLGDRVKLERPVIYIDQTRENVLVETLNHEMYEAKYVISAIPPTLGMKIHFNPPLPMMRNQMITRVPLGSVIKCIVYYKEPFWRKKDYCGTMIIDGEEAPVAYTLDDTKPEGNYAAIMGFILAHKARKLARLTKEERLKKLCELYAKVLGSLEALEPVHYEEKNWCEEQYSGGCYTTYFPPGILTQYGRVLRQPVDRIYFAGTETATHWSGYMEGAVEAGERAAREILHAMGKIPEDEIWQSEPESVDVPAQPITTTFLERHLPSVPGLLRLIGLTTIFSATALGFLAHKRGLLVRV

[8] = target: T2, Beta-secretase 1; assay: Inhibition of BACE-1 (unknown origin)
[9] = target: Cholinesterase (Equus caballus, UniProt P81908); assay: Inhibition of equine serum BuChE using butyrylthiocholine iodide as substrate preincubated for 5 mins followed by substrate addition by DTNB reagent based Ellman's method
Chain of Cholinesterase (Equus caballus, UniProt P81908) (P81908 whole entry): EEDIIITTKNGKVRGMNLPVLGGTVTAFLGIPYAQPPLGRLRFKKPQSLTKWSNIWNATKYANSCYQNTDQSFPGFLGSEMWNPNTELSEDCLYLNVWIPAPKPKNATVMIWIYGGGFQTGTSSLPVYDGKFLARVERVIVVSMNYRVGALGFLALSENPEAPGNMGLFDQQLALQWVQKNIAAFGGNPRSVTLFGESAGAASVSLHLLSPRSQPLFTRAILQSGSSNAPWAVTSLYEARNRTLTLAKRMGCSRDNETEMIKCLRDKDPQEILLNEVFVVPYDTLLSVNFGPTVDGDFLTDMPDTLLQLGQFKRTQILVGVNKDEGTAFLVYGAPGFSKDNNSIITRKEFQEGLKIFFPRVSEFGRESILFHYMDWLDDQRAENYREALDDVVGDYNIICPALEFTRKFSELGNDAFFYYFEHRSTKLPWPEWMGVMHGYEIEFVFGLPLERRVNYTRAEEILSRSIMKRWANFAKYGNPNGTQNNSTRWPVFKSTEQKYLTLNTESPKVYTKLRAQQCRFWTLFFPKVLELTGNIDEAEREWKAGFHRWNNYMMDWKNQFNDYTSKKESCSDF

[10] = target: T1, Acetylcholinesterase; assay: Inhibition of AChE (unknown origin) using acetylthiocholine iodide as substrate measured after 15 mins by Ellman's method
[11] = target: T1, Acetylcholinesterase
Description: Inhibition of human AChE by Ellman's method

[12] = target: T1, Acetylcholinesterase; assay: Inhibition of AChE (unknown origin) incubated for 1 hr by Ellman's method
[13] = target: T1, Acetylcholinesterase; assay: Inhibition of human AChE using acetylthiocholine iodide as substrate after 15 mins by Ellman's method
[14] = target: T1, Acetylcholinesterase; assay: Inhibition of AChE (unknown origin) using acetylthiocholine iodide as substrate measured for 20 mins by Ellman's method
[15] = target: T1, Acetylcholinesterase; assay: Inhibition of AChE (unknown origin) by Ellman's method
[16] = target: T2, Beta-secretase 1; assay: Inhibition of human BACE-1 by FRET assay
[17] = target: T1, Acetylcholinesterase; assay: Inhibition of AChE (unknown origin) at 40 uM by Ellman's method relative to control
[18] = target: T3, Acetylcholinesterase; assay: Inhibition of electric eel AChE by Ellman's method
[19] = target: T6, Glycogen synthase kinase-3 beta (Homo sapiens, UniProt P49841)
T6 sequence (P49841 whole entry): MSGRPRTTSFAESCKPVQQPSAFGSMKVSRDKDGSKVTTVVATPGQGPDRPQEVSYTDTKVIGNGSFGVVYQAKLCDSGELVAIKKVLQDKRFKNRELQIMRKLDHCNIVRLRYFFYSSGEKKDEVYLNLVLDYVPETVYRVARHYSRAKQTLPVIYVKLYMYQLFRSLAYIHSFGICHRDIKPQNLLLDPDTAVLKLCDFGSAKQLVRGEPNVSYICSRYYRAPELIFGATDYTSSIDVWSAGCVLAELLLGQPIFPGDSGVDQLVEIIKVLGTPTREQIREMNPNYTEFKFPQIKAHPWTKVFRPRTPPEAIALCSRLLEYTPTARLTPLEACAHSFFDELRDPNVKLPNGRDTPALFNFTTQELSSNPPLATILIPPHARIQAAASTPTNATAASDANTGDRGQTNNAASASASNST
Description: Inhibition of human GSK3beta by TR-FRET analysis

[20] = target: T1, Acetylcholinesterase; assay: Inhibition of human recombinant AChE using acetylthiocholine iodide as substratE incubated for 20 mins by DTNB reagent based Ellman's method
[21] = target: T1, Acetylcholinesterase; assay: Inhibition of human AChE using acetylthiocholine iodide as substrate preincubated for 15 mins followed by substrate addition and measured for 30 mins by Ellman's method
[22] = target: T1, Acetylcholinesterase; remark: listed apart in the source
[23] = target: T6, Glycogen synthase kinase-3 beta; assay: Inhibition of human recombinant GSK3beta by ADP-Glo Kinase Assay
[24] = Permeability of compound at pH 7.4 by PAMPA assay; format: ADME; settings: read-out: permeability

T2 sequence (P56817 whole entry): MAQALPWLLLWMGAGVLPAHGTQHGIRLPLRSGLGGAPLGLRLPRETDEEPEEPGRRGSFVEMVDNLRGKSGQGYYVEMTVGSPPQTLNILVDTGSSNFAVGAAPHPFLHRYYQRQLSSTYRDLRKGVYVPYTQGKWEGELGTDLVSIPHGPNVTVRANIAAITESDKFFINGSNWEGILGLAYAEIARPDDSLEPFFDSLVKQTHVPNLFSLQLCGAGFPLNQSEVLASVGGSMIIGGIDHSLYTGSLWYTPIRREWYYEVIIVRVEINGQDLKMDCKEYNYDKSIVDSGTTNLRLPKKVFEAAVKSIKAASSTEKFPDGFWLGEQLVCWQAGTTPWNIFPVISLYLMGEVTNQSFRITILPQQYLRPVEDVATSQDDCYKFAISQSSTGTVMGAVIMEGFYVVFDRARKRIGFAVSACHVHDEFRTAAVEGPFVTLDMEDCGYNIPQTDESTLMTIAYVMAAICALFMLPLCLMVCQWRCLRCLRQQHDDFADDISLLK
T1 sequence (P22303 whole entry): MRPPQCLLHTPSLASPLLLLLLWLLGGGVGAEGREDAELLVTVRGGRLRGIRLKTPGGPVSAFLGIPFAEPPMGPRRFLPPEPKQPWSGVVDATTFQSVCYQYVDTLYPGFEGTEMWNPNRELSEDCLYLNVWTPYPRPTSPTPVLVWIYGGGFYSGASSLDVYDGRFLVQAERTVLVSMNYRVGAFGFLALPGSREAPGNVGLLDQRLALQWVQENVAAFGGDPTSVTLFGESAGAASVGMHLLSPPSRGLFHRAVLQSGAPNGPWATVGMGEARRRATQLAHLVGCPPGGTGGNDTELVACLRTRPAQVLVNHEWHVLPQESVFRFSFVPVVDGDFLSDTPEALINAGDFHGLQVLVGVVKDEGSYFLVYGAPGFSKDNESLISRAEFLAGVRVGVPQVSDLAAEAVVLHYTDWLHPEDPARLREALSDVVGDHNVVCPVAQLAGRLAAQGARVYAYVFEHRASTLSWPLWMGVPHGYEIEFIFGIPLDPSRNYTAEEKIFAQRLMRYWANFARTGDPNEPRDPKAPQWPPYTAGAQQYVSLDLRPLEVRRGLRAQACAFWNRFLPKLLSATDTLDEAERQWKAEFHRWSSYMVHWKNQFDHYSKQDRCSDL

Compound `O=C(/C=C/c1ccccc1)c1ccccc1` [CHALCONE] has an IC50 [1] of 28200 nM.

For `CN(Cc1ccccc1)Cc1ccc(/C=C2/Cc3ccc(OCCCCCN4CCN(C(c5ccc(F)cc5)c5ccc(F)cc5)CC4)cc3C2=O)cc1`, the IC50 [2] was 341 nM and the IC50 [3] was 44.1 nM.

For `CCN(CCCCOc1ccc(C(=O)/C=C/c2ccc(N(C)C)cc2)c(O)c1)Cc1ccccc1N(C)C`, the IC50 [4] was 130 nM and the IC50 [5] was 130 nM.

In the case of `CCOc1ccc(C(=O)/C=C/c2ccccc2)cc1`, the IC50 [6] is reported as 28500 nM, the IC50 [7] is reported as 400 nM and the IC50 [4] is reported as 3230 nM.

In the case of `Clc1ccc(-c2nnc(CNC3CCN(Cc4ccccc4)CC3)o2)c(Cl)c1`, the IC50 [8] is reported as 250 nM and the IC50 [9] is reported as 210 nM.

Compound `Fc1ccc(-c2nnc(N3CCN(c4ccccn4)CC3)o2)c(F)c1` has an IC50 [8] of 210 nM and an IC50 [9] of 160 nM.

In the case of `CSc1ccc(/C=C/C(=O)c2ccccc2N)cn1`, the IC50 [10] is reported as 1220 nM.

Compound `O=C(CN1CCC(Cc2ccccc2)CC1)c1ccc2ccccc2c1` has an IC50 [11] of 9130 nM.

With `O=C(N/N=C/c1ccc([N+](=O)[O-])cc1)c1ccc(Cl)nc1` the IC50 [8] was 200 nM and the IC50 [12] was 20 nM.

With `CCO/C(C)=N/Oc1ccc(/C=C/C(=O)c2ccc(F)cc2)cc1` the IC50 [6] was 17400 nM, the IC50 [7] was 20 nM and the IC50 [4] was 670 nM.

Compound `CNC(=O)c1sc(-c2ccnc(NC(=O)C3CC3)c2)nc1OC1CCN(Cc2ccccc2)CC1` has an IC50 [13] of 73 nM.

`COc1ccc(/C=C/C(=N/Oc2ccc(/C=C/C(=O)c3ccc(F)cc3)cc2)c2ccc(OC)cc2)cc1` gave an IC50 [7] of 20 nM.

With `O=C(/C=C/c1ccc(Br)cc1)c1ccc(Cl)s1` the IC50 [6] was 1360 nM, the IC50 [7] was 700 nM and the IC50 [4] was 16200 nM. For the same compound, the IC50 [5] was 19300 nM.

For `COc1ccccc1/C=C1\Oc2cc(OCCN3CCCC3)ccc2C1=O`, the IC50 [6] was greater than 100000 nM, the IC50 [7] was 980 nM and the IC50 [14] was 2670 nM.

Compound `COc1ccc([C@@H]2c3[nH]c4ccccc4c3C[C@H]3C(=O)N(CCC4CCN(Cc5ccccc5)CC4)CC(=O)N23)cc1` has an IC50 [15] of 10 nM.

`COc1ccc(/C=C2\Oc3cc(OCCN4CCCC4)ccc3C2=O)c(OC)c1OC` showed an IC50 [11] of 1560 nM and an IC50 [7] of 340 nM.

In the case of `COc1ccc2c(c1)C/C(=C/c1ccccc1-c1ccc3ccccc3c1)C2=O`, the IC50 [16] is reported as 101 nM.

Work on `COc1ccc([C@@H]2c3[nH]c4ccccc4c3C[C@@H]3C(=O)N(CCC4CCN(Cc5ccccc5)CC4)CC(=O)N23)cc1` yielded an inhibition [17] of 55.4%.

For `O=CNc1nccc2c1[nH]c1cc(C(=O)NCCC3CCN(Cc4ccccc4F)CC3)ccc12`, the IC50 [18] was 270 nM and the IC50 [19] was 6780 nM.

Work on `COc1ccc(NC(=O)C2CCN(Cc3ccccc3)CC2)cc1OC` yielded an IC50 [16] of 243 nM and an IC50 [20] of 145 nM.

Compound `O=C1/C(=C/c2ccc(O)cc2)Oc2cc(O)ccc21` has an IC50 [21] of 202000 nM.

For `COc1cc(/C=N/NC(=O)c2ccc(Cl)nc2)ccc1O`, the IC50 [8] was 600 nM and the IC50 [12] was 30 nM.

`COc1cc(/C=C2\Oc3cc(OCCN4CCCCC4)ccc3C2=O)cc(OC)c1OC` showed an IC50 [6] greater than 100000 nM, an IC50 [7] of 340 nM and an IC50 [14] of 1560 nM.

In the case of `CN1CCN(c2ccc(C(=O)/C=C/c3cc(Br)ccc3F)cc2)CC1`, the IC50 [5] is reported as 9440 nM.

Work on `COc1nc(-c2ccnc(NC(=O)C3CC3)c2)sc1C(=O)NCCNc1c2c(nc3ccccc13)CCCC2` yielded an IC50 [22] of 6.4 nM and an IC50 [23] of 66 nM.

With `CN(C)c1ccc(/C=C/C(=O)c2ccc(N3CCOCC3)cc2)cc1` the IC50 [6] was greater than 40000 nM and the IC50 [5] was greater than 40000 nM.

For `COc1ccc(-c2ccccc2/C=C2/Cc3cc(OC)ccc3C2=O)cc1`, the IC50 [2] was 99.4 nM and the IC50 [3] was 21.2 nM.

`CN1CC(=O)N2[C@H](c3ccc4c(c3)OCO4)c3[nH]c4ccccc4c3C[C@@H]2C1=O` gave a Papp at 18 h [24] of 2.16 ×10⁻⁶ cm/s.
